Reference: patent US20110275647A1, “PYRIMIDIN-4-(3H)-ONE DERIVATIVES” (MSD K.K., priority 2009, published 2011)
pIC50: −log10 of the molar value.

target: T1, human MGAT2 (Homo sapiens, UniProt Q3SYC2); experiment: MGAT2 inhibitory activity test; type: biochemical; conditions: MGAT2-expressed yeast membrane fraction, [14C]-oleoyl-CoA, 37° C. for 30 minutes
T1 construct: made in house; host or cells: Pichia pastoris (vector pPICZA), membrane fraction
Experimental: Human MGAT2 genes were amplified by PCR using primers described below from human cDNA library (Clontech).
The amplified human MGAT2 genes were introduced into a yeast expression vector pPICZA (Invitrogen). The resultant expression plasmid was introduced into an yeast (Pichia pastris) by electroporation to produce a recombinant yeast. The recombinant yeast was cultured in the presence of 0.5% methanol for 72 hours, and the cells were crushed using glass beads in 10 mM Tris pH 7.5, 250 mM sucrose and 1 mM EDTA, followed by adjusting the membrane fraction by centrifugation to use the adjusted membrane fraction as an enzyme source.
To the reaction solution, 100 μl of 2-propanol/heptan (80:20) was added, the mixture was stirred well, followed by addition of 200 μl of heptane and further stirring the mixture. After centrifugation, the heptane layer was collected, 80 μl of ethanol/0.1N NaOH/H2O (50:5:45) was added, the mixture was thus stirred, followed by recentrifuging the mixture and collecting the heptane layer. After exsiccation of the resultant heptane layer, 100 μl of Microscint 0 (PerkinElmer) was added, and the radioactivity was measured with a liquid scintillation counter. The inhibitory activity was calculated from the following formula:
Inhibition rate=100−(radioactivity in case of addition of test compound−background)/(radioactivity in case of addition of no test compound−background)×100
wherein the background means the radioactivity in case of addition of no membrane fraction.

T1 sequence (Q3SYC2 whole entry): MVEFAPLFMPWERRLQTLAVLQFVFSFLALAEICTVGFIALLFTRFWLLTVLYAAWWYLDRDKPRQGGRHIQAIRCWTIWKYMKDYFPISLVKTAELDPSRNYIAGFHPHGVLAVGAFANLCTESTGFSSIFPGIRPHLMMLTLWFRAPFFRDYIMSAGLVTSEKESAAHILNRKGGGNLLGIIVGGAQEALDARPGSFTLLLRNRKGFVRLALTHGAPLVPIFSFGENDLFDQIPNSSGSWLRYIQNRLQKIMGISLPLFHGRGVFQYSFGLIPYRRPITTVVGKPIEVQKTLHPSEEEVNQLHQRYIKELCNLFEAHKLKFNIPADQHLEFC

pIC50 | SMILES
6.74 | O=c1c2c(nc(SCc3ccccc3)n1-c1ccccc1)CCN(c1nc3cc(C(F)(F)F)ccc3[nH]1)C2 [Example 2, 6-(5-trifluoromethyl-1H-benzimidazol-2-yl)-3-phenyl-2-[(phenylmethyl)thio]-5,6,7,8-tetrahydropyrido[4,3-d]pyrimidin-4(3H)-one]
6.94 | O=c1c2c(nc(SCc3ccnnc3)n1-c1ccccc1)CCN(c1nc3cc(C(F)(F)F)ccc3[nH]1)C2 [Example 4, 3-phenyl-2-[(pyridazin-4-ylmethyl)thio]-6-[5-(trifluoromethyl)-1H-benzimidazol-2-yl]-5,6,7,8-tetrahydropyrido[4,3-d]pyrimidin-4(3H)-one]
6.09 | O=c1c2c(nc(SCc3ccccc3)n1-c1ccccc1)CCN(c1nc3cc(F)c(F)cc3[nH]1)C2 [Example 1, 6-(5,6-difluoro-1H-benzimidazol-2-yl)-3-phenyl-2-[(phenylmethyl)thio]-5,6,7,8-tetrahydropyrido[4,3-d]pyrimidin-4(3H)-one]

SMILES | pIC50
O=c1c2c(nc(SCc3cccnc3)n1-c1ccccc1)CCN(c1nc3cc(C(F)(F)F)ccc3[nH]1)C2 [Example 3, 3-phenyl-2-[(pyridin-3-ylmethyl)thio]-6-[5-(trifluoromethyl)-1H-benzimidazol-2-yl]-5,6,7,8-tetrahydropyrido[4,3-d]pyrimidin-4(3H)-one] | 7.25
